The source of these data is article PMC5689168 (Biochemistry and Biophysics Reports, 2016).

As a reminder, the EC50 is the midpoint of the concentration-response curve.

The structures appear in SMILES notation. “And” between values parts separate entries of the source, which are not always exact repeats. Equal values may be shown once. “Also recorded” adds a separate entry of the source. Read-outs that look alike come from different tables or passages of the source.

The target of one series is α1β2γ2 GABAA receptors (Rattus norvegicus, UniProt P62813+P63138). Format: cell-based, rat α1, rat β2, murine γ2.
α1β2γ2 GABAA receptors, sequence (P62813 28-455): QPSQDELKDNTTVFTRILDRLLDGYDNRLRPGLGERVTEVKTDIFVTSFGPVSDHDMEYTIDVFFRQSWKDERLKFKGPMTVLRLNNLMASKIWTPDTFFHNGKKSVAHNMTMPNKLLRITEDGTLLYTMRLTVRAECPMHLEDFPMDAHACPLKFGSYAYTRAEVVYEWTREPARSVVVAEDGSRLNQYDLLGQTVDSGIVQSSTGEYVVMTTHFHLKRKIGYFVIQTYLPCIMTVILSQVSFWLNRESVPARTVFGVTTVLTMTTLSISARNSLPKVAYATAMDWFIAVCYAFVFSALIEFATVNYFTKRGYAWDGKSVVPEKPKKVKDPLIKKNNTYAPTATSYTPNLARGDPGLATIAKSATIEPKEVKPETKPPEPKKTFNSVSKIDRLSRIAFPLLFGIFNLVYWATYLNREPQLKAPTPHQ
α1β2γ2 GABAA receptors, sequence (P63138 25-474 limits assumed): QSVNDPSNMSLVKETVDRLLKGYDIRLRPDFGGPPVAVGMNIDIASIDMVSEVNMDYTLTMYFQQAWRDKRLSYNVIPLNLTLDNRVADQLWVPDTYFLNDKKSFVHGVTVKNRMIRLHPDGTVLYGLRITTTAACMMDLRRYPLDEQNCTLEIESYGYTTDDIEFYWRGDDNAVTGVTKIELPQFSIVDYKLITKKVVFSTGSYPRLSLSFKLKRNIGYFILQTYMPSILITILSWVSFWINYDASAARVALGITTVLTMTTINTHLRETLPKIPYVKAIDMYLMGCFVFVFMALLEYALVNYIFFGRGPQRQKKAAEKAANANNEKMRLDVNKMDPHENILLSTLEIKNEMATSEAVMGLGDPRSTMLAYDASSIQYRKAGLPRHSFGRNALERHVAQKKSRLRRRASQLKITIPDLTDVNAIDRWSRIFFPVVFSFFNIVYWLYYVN
α1β2γ2 GABAA receptors, sequence (P22723 39-474 partner): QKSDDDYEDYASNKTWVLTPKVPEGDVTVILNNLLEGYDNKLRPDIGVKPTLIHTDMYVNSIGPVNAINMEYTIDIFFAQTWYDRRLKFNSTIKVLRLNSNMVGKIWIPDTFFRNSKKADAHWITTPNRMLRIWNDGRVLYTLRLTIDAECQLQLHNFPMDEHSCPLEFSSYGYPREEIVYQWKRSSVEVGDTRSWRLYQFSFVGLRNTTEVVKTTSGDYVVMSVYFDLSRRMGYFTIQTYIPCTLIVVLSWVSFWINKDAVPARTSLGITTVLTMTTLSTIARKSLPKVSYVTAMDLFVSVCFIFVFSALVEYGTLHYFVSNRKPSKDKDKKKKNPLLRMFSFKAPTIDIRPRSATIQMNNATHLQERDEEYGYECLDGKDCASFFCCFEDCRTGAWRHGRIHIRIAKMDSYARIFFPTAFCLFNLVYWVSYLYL
In series [1] the target is α1β2(N265M)γ2 GABAA receptors (Rattus norvegicus, UniProt P62813+P63138, N289M). The series is described as follows: Two-electrode voltage clamp on Xenopus laevis oocytes expressing mutant α1β2. Format: cell-based, rat α1, rat β2, murine γ2. Background: Two-electrode voltage clamp is typically applied to oocytes expressing channels or transporters.
α1β2(N265M)γ2 GABAA receptors, sequence (P62813 28-455): as the sequence (P62813 28-455) above
α1β2(N265M)γ2 GABAA receptors, sequence (P63138 25-474 N289M limits assumed): as the sequence (P63138 25-474 limits assumed) above, with N265M counted along it
α1β2(N265M)γ2 GABAA receptors, sequence (P22723 39-474 partner): as the sequence (P22723 39-474 partner) above
For the next series, the target named is α1β2 GABAA receptor (Rattus norvegicus, UniProt P62813+P63138). The series is classed as cell-based, rat α1, rat β2.
α1β2 GABAA receptor, sequence (P62813 28-455): as the sequence (P62813 28-455) above
α1β2 GABAA receptor, sequence (P63138 25-474 limits assumed): as the sequence (P63138 25-474 limits assumed) above
For another series, the system named is 5HT3A receptor. The following applies: cited from earlier work.
For series [2] the following is noted: cited from earlier work.
In another series the target is α1β1γ2 GABAA receptors (Rattus norvegicus, UniProt P15431+P62813). Format: cell-based, rat α1, rat β1, murine γ2.
α1β1γ2 GABAA receptors, sequence (P62813 28-455): as the sequence (P62813 28-455) above
α1β1γ2 GABAA receptors, sequence (P15431 26-474): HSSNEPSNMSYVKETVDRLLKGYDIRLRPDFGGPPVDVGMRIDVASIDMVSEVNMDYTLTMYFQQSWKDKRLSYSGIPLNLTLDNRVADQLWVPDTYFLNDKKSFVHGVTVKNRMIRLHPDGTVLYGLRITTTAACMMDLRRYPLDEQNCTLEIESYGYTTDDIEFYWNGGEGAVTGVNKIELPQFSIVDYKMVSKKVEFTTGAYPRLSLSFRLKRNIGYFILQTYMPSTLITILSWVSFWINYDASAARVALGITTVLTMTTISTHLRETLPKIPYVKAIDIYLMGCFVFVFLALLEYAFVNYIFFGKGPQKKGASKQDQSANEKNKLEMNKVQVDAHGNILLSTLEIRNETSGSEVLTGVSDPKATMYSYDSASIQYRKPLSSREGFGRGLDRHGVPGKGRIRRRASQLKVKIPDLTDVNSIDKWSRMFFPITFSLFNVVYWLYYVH
α1β1γ2 GABAA receptors, sequence (P22723 39-474 partner): as the sequence (P22723 39-474 partner) above
In a further series the target is α1β3γ2 GABAA receptors (UniProt P28472+P62813). Format: cell-based, rat α1, human β3, murine γ2.
α1β3γ2 GABAA receptors, sequence (P62813 28-455): as the sequence (P62813 28-455) above
α1β3γ2 GABAA receptors, sequence (P28472 26-473): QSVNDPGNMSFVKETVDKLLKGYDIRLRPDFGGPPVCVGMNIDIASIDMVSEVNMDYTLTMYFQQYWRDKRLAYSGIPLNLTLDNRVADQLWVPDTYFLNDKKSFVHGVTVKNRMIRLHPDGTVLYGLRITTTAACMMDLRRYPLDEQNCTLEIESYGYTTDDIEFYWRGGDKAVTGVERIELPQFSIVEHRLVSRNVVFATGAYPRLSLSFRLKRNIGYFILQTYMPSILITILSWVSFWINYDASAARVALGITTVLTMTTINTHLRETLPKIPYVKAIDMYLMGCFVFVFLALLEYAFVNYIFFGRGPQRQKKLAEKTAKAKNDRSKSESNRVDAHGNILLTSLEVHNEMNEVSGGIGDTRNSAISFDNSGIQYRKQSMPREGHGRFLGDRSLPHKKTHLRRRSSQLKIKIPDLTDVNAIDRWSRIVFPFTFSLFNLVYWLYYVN
α1β3γ2 GABAA receptors, sequence (P22723 39-474 partner): as the sequence (P22723 39-474 partner) above
The target in series [3] is α1β2(M286W)γ2 GABAA receptors (Rattus norvegicus, UniProt P62813+P63138, M310W). The experiment in a line: Two-electrode voltage clamp on Xenopus laevis oocytes expressing mutant α1β2. Format: cell-based, rat α1, rat β2, murine γ2.
α1β2(M286W)γ2 GABAA receptors, sequence (P62813 28-455): as the sequence (P62813 28-455) above
α1β2(M286W)γ2 GABAA receptors, sequence (P63138 25-474 M310W limits assumed): as the sequence (P63138 25-474 limits assumed) above, with M286W counted along it
α1β2(M286W)γ2 GABAA receptors, sequence (P22723 39-474 partner): as the sequence (P22723 39-474 partner) above
The next series addresses α1β2γ2 receptors. The note with it: read-out: EC50 for potentiation; cited from earlier work.

For `CC1(C)C=Cc2c(ccc3c2OC[C@@H](c2ccc(O)cc2O)C3)O1` [glabridin], the EC50 on α1β2γ2 GABAA receptors (Modulatory EC50, α1β2γ2, potentiation of current evoked by 3 µM GABA) is 6 µM and 6.3 µM; in series [1] it was 32.6 ± 1.52 µM; at α1β2 GABAA receptor, 9.63 ± 0.7 µM; on α1β1γ2 GABAA receptors, 17.2 ± 2.64 µM; on α1β3γ2 GABAA receptors, 6.83 ± 3.07 µM. The “Concentration at which potentiation of GABA-induced currents starts” value at α1β2γ2 GABAA receptors (α1β2γ2, 3 µM GABA) is listed as 1 µM. The “Concentration of maximal potentiation” value at α1β2γ2 GABAA receptors (α1β2γ2, 3 µM GABA) is recorded as “approximately 30 µM”. For the same molecule, the “Potentiating action of 30 µM glabridin in the presence of flumazenil” value on α1β2γ2 GABAA receptors (α1β2γ2, 3 µM GABA, 30 µM glabridin, 1 µM flumazenil) is recorded as “not significantly altered”. In addition, the “Fold decrease of GABA EC50” value at α1β2γ2 GABAA receptors (α1β2γ2, 30 µM glabridin) was 12 fold and 12.3 fold; on α1β2γ2 GABAA receptors (α1β2γ2, 30 µM glabridin, listed as Glabridin) it was “approximately 12 fold”; in series [1] (α1β2(N265M)γ2, 30 µM glabridin), 3.5 fold; at α1β2 GABAA receptor (α1β2, 30 µM glabridin) it was 1.8 fold; on α1β1γ2 GABAA receptors (α1β1γ2, 30 µM glabridin), 4.4 fold; at α1β3γ2 GABAA receptors (α1β3γ2, 30 µM glabridin), 6.8 fold. Further, the “Fold decrease of GABA EC50” value in series [3] (30 µM glabridin) was 0.75 fold. Further, the “Direct activation by 30 µM glabridin” value was found to be 0.07±0.02 at α1β2γ2 GABAA receptors (α1β2γ2, 30 µM glabridin in the absence of GABA, normalized to GABA current); 0.11±0.05 on α1β2 GABAA receptor (α1β2, 30 µM glabridin in the absence of GABA, normalized to GABA current); 0.14±0.08 at α1β1γ2 GABAA receptors (α1β1γ2, 30 µM glabridin in the absence of GABA, normalized to GABA current); 0.08±0.04 at α1β3γ2 GABAA receptors (α1β3γ2, 30 µM glabridin in the absence of GABA, normalized to GABA current). Further, the “Fold potentiation by 30 µM glabridin” value at α1β2γ2 GABAA receptors (α1β2γ2, 30 µM glabridin, 3 µM GABA) amounted to 6.20±1.41 fold; on α1β2 GABAA receptor (α1β2, 30 µM glabridin, 3 µM GABA), 4.23±0.56 fold; at α1β1γ2 GABAA receptors (α1β1γ2, 30 µM glabridin, 1 µM GABA) it was 5.07±1.45 fold; at α1β3γ2 GABAA receptors (α1β3γ2, 30 µM glabridin, 10 µM GABA) it was 2.63±0.42 fold; in series [3] (30 µM glabridin, 3 µM GABA) it was 1.04±0.05 fold. Besides, the “Direct activation, share of the maximally evoked current by saturating GABA concentrations” value on α1β2γ2 GABAA receptors (α1β2γ2, 100 µM glabridin in the absence of GABA, n=4) is given as “up to 17±7%”. Also, on α1β2γ2 GABAA receptors (α1β2γ2, components of Glycyrrhiza at 10 µM, n=3–4), the “Screening for potentiation of GABA-induced currents” value was “the only potentiator of the tested substances”. Also, the “Direct activation at lower concentrations” value on α1β2γ2 GABAA receptors (α1β2γ2, glabridin up to 10 µM in the absence of GABA) is given as “failed to activate”. Besides, the “Threshold concentration for direct activation” value at α1β2γ2 GABAA receptors (α1β2γ2, in the absence of GABA) was determined as 30 µM. The “Maximally induced current evoked by 1 mM GABA” value on α1β2γ2 GABAA receptors (α1β2γ2, with 30 µM glabridin, p=0.055, n=4) is recorded as “not significantly altered”. The “Action on 5HT3A receptor channel” value in the series on 5HT3A receptor was “blocker of the channel”. For the same molecule, the “Crossing of the blood-brain-barrier” value in series [2] is given as “able to cross the blood-brain-barrier”. The “Modulatory EC50” value in series [3] (potentiation of current evoked by 3 µM GABA) is “Neither a potentiating effect nor any shift; also recorded: no potentiation”.

As for `CC(C)c1cccc(C(C)C)c1O` [propofol], the EC50 at α1β2γ2 receptors was around 2 µM.
